Laboratory results reported in patent US9284307B2, “Macrocyclic serine protease inhibitors” (Idenix Pharmaceuticals LLC, priority 2009, dated 2016).

Assays:
[1] = target: T1, HCV NS3-NS4A protease 1b (Hepatitis C virus genotype 1b, UniProt Q9WMX2); assay: HCV protease assay (HiLyte Fluor TR/QXL 610 FRET peptide), genotype 1b; assay type: biochemical; conditions: 2-3 nM protease, 60 min at 30° C., read-out: IC50 Against HS3/4A 1b
T1 construct: using 2-3 nM HCV NS3-NS4A protease, which was produced according to the method of Taremi et al; made in house
Description: Measurement of the inhibitory effect of compounds on HCV protease activity was performed using the HiLyte Fluor™ TR/QXL™ 610 FRET peptide from AnaSpec, Inc. (San Jose, Calif.) under conditions developed in-house using 2-3 nM HCV NS3-NS4A protease, which was produced according to the method of Taremi et al. (Protein Science, 1998, 7, 2143-2149). The compounds were tested at a variety of concentrations in assay buffer containing a final DMSO concentration of 5%. Reactions were allowed to proceed for 60 min at 30° C. and fluorescence measurements were recorded with a PerkinElmer Victor^3 V 1420 Multilabel Counter. The IC50 values were determined from the percent inhibition versus concentration data using a sigmoidal non-linear regression analysis based on four parameters with XLfit 4.1 software.

[2] = tested on: HCV luciferase-bearing mutant replicon, NS3 A156S, in cured GS4.1 cells; assay: Luciferase replicon transient transfection assay, A156S mutant replicon; assay type: cell-based
Description: (§1) The luciferase replicon transient transfection assay measures the ability of a test compound to inhibit the replication of a transiently-transfected HCV luciferase-bearing wild-type or mutant replicon in cured human hepatoma cells (cured GS4.1). The mutant replicons bear a specific single-site mutation in NS3 that is known to confer resistance to protease inhibitors currently in development. The inhibition of HCV replication was measured by quantification of luciferase protein expression. This assay has been validated using a panel of replicons bearing known protease inhibitor resistance mutations and their respective reference compounds. Briefly, subconfluent cured GS4.1 cells in OptiBuffer (ThermoElectron Corp.) were electroporated with 40 μg of wild-type or mutant luciferase-bearing HCV replicon RNA. The cells were then seeded in 96-well opaque white plates at 2.4×10^4 cells/well in 150 μL/well and incubated for 4 hours at 37° C./5% CO2. […] The plates were agitated on a rotating platform at room temperature for 3 minutes and read in a Victor^3V microplate reader (Perkin-Elmer) using a 700 nm cut-off filter with a 1 second read time. EC50 values were calculated from dose response curves from the resulting best-fit equations determined by Microsoft Excel and XLfit 4.1 software.

[3] = tested on: HCV luciferase-bearing mutant replicon, NS3 A156T, in cured GS4.1 cells; assay: Luciferase replicon transient transfection assay, A156T mutant replicon; assay type: cell-based
Description: as §1

[4] = target: T2, HCV NS3-NS4A protease (Hepatitis C virus genotype 1b, UniProt Q9WMX2); assay: HCV protease assay (SensoLyte 620 HCV Protease Assay kit); assay type: biochemical; conditions: 1.2 nM HCV NS3-NS4A protease, 60 min at room temperature
T2 construct: using 1.2 nM HCV NS3-NS4A protease, which was obtained according to Taremi et al; made in house
Description: Measurement of the inhibitory effect of compounds on HCV protease activity was performed with the SensoLyte™ 620 HCV Protease Assay kit from AnaSpec, Inc. (San Jose, Calif.) under conditions described by the supplier using 1.2 nM HCV NS3-NS4A protease, which was obtained according to Taremi et al. (Protein Science, 1998, 7, 2143-2149). The compounds were tested at a variety of concentrations in assay buffer containing a final DMSO concentration of 5%. Reactions were allowed to proceed for 60 min at room temperature and fluorescence measurements were recorded with a Tecan Infinity Spectrofluorimeter. The IC50 values were determined from the percent inhibition versus concentration data using a sigmoidal non-linear regression analysis based on four parameters with Tecan Magellan software.

[5] = tested on: HCV Con1 subgenomic replicon in Huh-7 cells (GS4.1 cells); assay: HCV replicon assay (NS4A ELISA, GS4.1 cells); assay type: cell-based; conditions: Hepatitis C virus, 72 hr
Description: Huh-7 cells containing HCV Con1 subgenomic replicon (GS4.1 cells) were grown in Dulbecco's Modified Eagle Medium (DMEM) supplemented with 10% fetal bovine serum (FBS), 2 mM L-glutamine, 110 mg/L sodium pyruvate, 1× non-essential amino acids, 100 U/mL penicillin-streptomycin, and 0.5 mg/mL G418 (Invitrogen). For dose-response testing, the cells were seeded in 96-well plates at 7.5×10^3 cells/well in a volume of 50 μL, and incubated at 37° C./5% CO2. Three hours after plating, 50 μL of ten 2-fold serial dilutions of compounds (highest concentration, 75 μM) were added, and cell cultures were incubated at 37° C./5% CO2 in the presence of 0.5% DMSO. Alternatively, compounds were tested at a single concentration of 15 μM. In all cases, Huh-7 cells lacking the HCV replicon served as negative control. The cells were incubated in the presence of compounds for 72 hr after which they were monitored for expression of the NS4A protein by enzyme-linked immunosorbent assay (ELISA). […] The reaction was stopped after 30 min with 2 N H2SO4, and absorbance was read at 492 nm using Sunrise Tecan spectrophotometer. EC50 values were determined from the % inhibition versus concentration data using a sigmoidal non-linear regression analysis based on four parameters with Tecan Magellan software.

T1 sequence (Q9WMX2 1027-1208): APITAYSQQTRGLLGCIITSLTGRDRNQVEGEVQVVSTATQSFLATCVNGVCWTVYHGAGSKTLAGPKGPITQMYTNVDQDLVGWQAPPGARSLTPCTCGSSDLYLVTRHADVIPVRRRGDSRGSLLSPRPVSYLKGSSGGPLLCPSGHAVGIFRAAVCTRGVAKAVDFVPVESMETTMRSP
T2 sequence (Q9WMX2 1027-1208): as above

COc1ccc2c(O[C@H]3CC[C@H]4C(=O)N(C)CCCC/C=C\[C@@H]5C[C@@]5(C(=O)NS(=O)(=O)C5(C)CC5)NC(=O)[C@@H]4C3)cc(-c3nc(C(F)(F)F)cs3)nc2c1C [Compound 51]
IC50 [1]: < 1000 nM | Fold Change, A156S replicon ([2]; EC50 fold change, A156S replicon): 0.2 to 0.6 | EC50 ([2]; Hepatitis C virus, 96 h, read-out: EC50(nm), A156S replicon): 0.1 to 0.35 nM | Fold Change, A156T replicon ([3]; EC50 fold change, A156T replicon): 20-95 | EC50 ([3]; Hepatitis C virus, 96 h, read-out: EC50(nm), A156T replicon): 25 to 40 nM | IC50 [4]: < 1000 nM | EC50 [5]: < 1000 nM
